In patent publication US7109243B2 (IRM LLC, priority 2003, dated 2006):

What was measured:
Cathepsin S = Cathepsin S (Homo sapiens, UniProt P25774); experiment: Cathepsin S inhibition assay (fluorogenic peptide substrate); format: biochemical; conditions: Table II, compounds of Formula I; read-out: Ki Cat. S
How it was run: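 Ki values come from nonlinear fitting of inhibited hydrolysis rates, taking free and total inhibitor concentrations as equal. Rates measured as rising fluorescence at 380/450 nm after reaction start with 50 μM final acetyl-HPVK-aminocarbamoylcoumarin.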

Cathepsin K = target: T1, Cathepsin K (Homo sapiens, UniProt P43235); experiment: Cathepsin K inhibition assay (fluorogenic peptide substrate); selectivity ratio vs cathepsin S; format: biochemical; conditions: ratio of cathepsin K inhibition constant to cathepsin S inhibition constant; Table II
T1 sequence (P43235 115-329): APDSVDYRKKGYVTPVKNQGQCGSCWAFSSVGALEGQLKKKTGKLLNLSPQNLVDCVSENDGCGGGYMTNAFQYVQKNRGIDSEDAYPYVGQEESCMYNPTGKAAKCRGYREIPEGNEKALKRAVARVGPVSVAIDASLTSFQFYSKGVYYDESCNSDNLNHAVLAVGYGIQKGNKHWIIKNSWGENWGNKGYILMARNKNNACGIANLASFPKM
How it was run: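 Fluorogenic kinetic assay, started with acetyl-Lys-His-Pro-Lys-aminocarbamoylcoumarin at 40 μM final, hydrolysis followed at ex 380/em 450 nm. Apparent inhibition constants from progress curves, converted to competitive inhibition constants. Selectivity expressed as isozyme inhibition constant divided by cathepsin S inhibition constant.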

Cathepsin S, sequence (P25774 115-331, species assumed): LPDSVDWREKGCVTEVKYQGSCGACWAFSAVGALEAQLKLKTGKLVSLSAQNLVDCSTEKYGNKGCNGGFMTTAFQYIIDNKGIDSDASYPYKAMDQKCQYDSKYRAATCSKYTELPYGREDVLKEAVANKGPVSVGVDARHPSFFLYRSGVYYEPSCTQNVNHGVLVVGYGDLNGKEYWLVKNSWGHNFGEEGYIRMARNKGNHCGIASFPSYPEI

Row | SMILES | Ki (Cathepsin S) | Selectivity for Cat. S over Cat. K (Cathepsin K)
1 | COc1ccc(NCCNC(=O)[C@H](Cc2cccc(F)c2)NC(=O)c2cccc(C)c2)cc1 [Compound 236, (S)-N-{2-(3-Fluoro-phenyl)-1-[2-(4-methoxy-phenylamino)-ethylcarbamoyl]-ethyl}-3-methyl-benzamide] | < 100 nM | +++ (+++, >1000)
2 | COc1ccc(NCCNC(=O)[C@H](CC2CCCCC2)NC(=O)c2ccc(F)c(F)c2)cc1 [Compound 146, (S)-N-{2-Cyclohexyl-1-[2-(4-methoxy-phenylamino)-ethylcarbamoyl]-ethyl}-3,4-difluoro-benzamide] | < 100 nM | +++ (+++, >1000)
3 | COc1ccc(NCCNC(=O)[C@H](CC2CCCCC2)NC(=O)c2ccc(OC)cc2)cc1 [Compound 153, (S)-N-{2-Cyclohexyl-1-[2-(4-methoxy-phenylamino)-ethylcarbamoyl]-ethyl}-4-methoxy-benzamide] | < 100 nM | + (+, >10)
4 | COc1ccc(NCCNC(=O)[C@H](CC2CCCCC2)NC(=O)c2cccc(C)c2Cl)cc1 [Compound 108, (S)-2-Chloro-N-{2-cyclohexyl-1-[2-(4-methoxy-phenylamino)-ethylcarbamoyl]-ethyl}-3-methyl-benzamide] | < 100 nM | ++ (++, >100)
5 | O=C(NCCNc1ccc(F)cc1)[C@H](CC1CCCCC1)NC(=O)[C@H](O)c1ccccc1 [Compound 317, 3-Cyclohexyl-N-[2-(4-fluoro-phenylamino)-ethyl]-2-(S)-(2-(R)-hydroxy-2-phenyl-acetylamino)-propionamide] | < 100 nM | ++ (++, >100)
6 | COc1ccc(NCCNC(=O)[C@H](CC2CCCCC2)NC(=O)c2cccc(Cl)c2F)cc1 [Compound 155, (S)-3-Chloro-N-{2-cyclohexyl-1-[2-(4-methoxy-phenylamino)-ethylcarbamoyl]-ethyl}-2-fluoro-benzamide] | < 100 nM | +++ (+++, >1000)
7 | O=C(N[C@@H](CC1CCCCC1)C(=O)NCCNc1ccc(OC(F)(F)F)cc1)c1ccc(Oc2ccccc2)cc1 [Compound 141, N-{2-cyclohexyl-1-(S)-[2-(4-trifluoromethoxy-phenylamino)-ethylcarbamoyl]-ethyl}-4-phenoxy-benzamide] | < 100 nM | + (+, >10)
8 | CS(=O)(=O)Nc1cccc(C(=O)N[C@@H](CC2CCCCC2)C(=O)NCCNc2ccc(F)cc2)c1 [Compound 84, N-(S)-{2-cyclohexyl-1-[2-(4-fluoro-phenylamino)-ethylcarbamoyl]-ethyl}-3-methanesulfonylamino-benzamide] | < 100 nM | ++ (++, >100)
9 | COc1ccc(NCCNC(=O)[C@H](Cc2ccccc2)NC(=O)Nc2ccc(Cl)cc2)cc1 [Compound 88, (S)-2-[3-(4-Chloro-phenyl)-ureido]-N-[2-(4-methoxy-phenylamino)-ethyl]-3-phenyl-propionamide] | < 1000 nM | + (+, >10)
10 | O=C(N[C@@H](CC1CCCCC1)C(=O)NCCNc1ccc(OC(F)(F)F)cc1)C1CC(=O)N(Cc2cccs2)C1 (stereo partly drawn) [Compound 38, 5-Oxo-1-thiophen-2-ylmethyl-pyrrolidine-3-carboxylic acid (S)-{2-cyclohexyl-1-[2-(4-trifluoromethoxy-phenylamino)-ethylcarbamoyl]-ethyl}-amide] | < 100 nM | ++ (++, >100)
11 | Cc1nc(-c2ccc(C(=O)N[C@@H](CC3CCCCC3)C(=O)NCCNc3ccc(OC(F)(F)F)cc3)cc2)no1 [Compound 28] | < 1000 nM | + (+, >10)
12 | CC(C)Oc1ccc(C(=O)N[C@@H](CC2CCCCC2)C(=O)NCCNc2ccc(OC(F)(F)F)cc2)cc1 [Compound 61, N-(S)-{2-cyclohexyl-1-[2-(4-trifluoromethoxy-phenylamino)-ethylcarbamoyl]-ethyl}-4-isopropoxy-benzamide] | < 1000 nM | + (+, >10)
13 | COc1ccc(NCCNC(=O)[C@H](CCC2CCCCC2)NC(=O)c2ccc(-c3cccc(C(F)(F)F)c3)o2)cc1 [Compound 136, (S)-5-(3-Trifluoromethyl-phenyl)-furan-2-carboxylic acid {3-cyclohexyl-1-[2-(4-methoxy-phenylamino)-ethylcarbamoyl]-propyl}-amide] | < 1000 nM | ++ (++, >100)
14 | O=C(N[C@@H](CC1CCCCC1)C(=O)NCCNc1ccc(OC(F)(F)F)cc1)c1ccc(-c2cccc(F)c2)cc1 [Compound 198, (S)-3′-Fluoro-biphenyl-4-carboxylic acid {2-cyclohexyl-1-[2-(4-trifluoromethoxy-phenylamino)-ethylcarbamoyl]-ethyl}-amide] | < 1000 nM | + (+, >10)
15 | COc1ccc(NCCNC(=O)[C@H](CC2CCCCC2)NC(=O)c2sc(-c3ccc(C(F)(F)F)cc3)nc2C)cc1 [Compound 188, (S)-4-Methyl-2-(4-trifluoromethyl-phenyl)-thiazole-5-carboxylic acid {2-cyclohexyl-1-[2-(4-methoxy-phenylamino)-ethylcarbamoyl]-ethyl}-amide] | < 100 nM | +++ (+++, >1000)
16 | COc1ccc(NCCNC(=O)[C@H](Cc2cccc(C)c2)NC(=O)c2cccc(C)c2)cc1 [Compound 238, (S)-N-{1-[2-(4-Methoxy-phenylamino)-ethylcarbamoyl]-2-m-tolyl-ethyl}-3-methyl-benzamide] | < 100 nM | + (+, >10)
17 | COc1ccc(NCCNC(=O)[C@H](CC2CCCCC2)NC(=O)c2cnn(-c3ccc(F)cc3)c2C)cc1 [Compound 161, (S)-1-(4-Fluoro-phenyl)-5-methyl-1H-pyrazole-4-carboxylic acid {2-cyclohexyl-1-[2-(4-methoxy-phenylamino)-ethylcarbamoyl]-ethyl}-amide] | < 100 nM | ++ (++, >100)
18 | COc1ccc(NCCNC(=O)[C@H](Cc2ccccc2)NC(=O)c2cc(C)c(C)cc2C)cc1 [Compound 30, (S)-N-{1-[2-(4-Methoxy-phenylamino)-ethylcarbamoyl]-2-phenyl-ethyl}-2,4,5-trimethyl-benzamide] | < 100 nM | + (+, >10)
19 | COc1ccc(CC(=O)N[C@@H](CC2CCCCC2)C(=O)NCCNc2ccc(F)cc2)cc1 [Compound 301, 3-Cyclohexyl-N-[2-(4-fluoro-phenylamino)-ethyl]-2-(S)-[2-(4-methoxy-phenyl)-acetylamino]-propionamide] | < 100 nM | ++ (++, >100)
20 | O=C(N[C@@H](CC1CCCCC1)C(=O)NCCNc1ccc(F)cc1)c1cscn1 [Compound 314, Thiazole-4-carboxylic acid (S)-{2-cyclohexyl-1-[2-(4-fluoro-phenylamino)-ethylcarbamoyl]-ethyl}-amide] | < 100 nM | + (+, >10)
21 | CS(=O)(=O)Nc1ccc(C(=O)N[C@@H](CC2CCCCC2)C(=O)NCCNc2ccc(F)cc2)cc1 [Compound 299, N-(S)-{2-cyclohexyl-1-[2-(4-fluoro-phenylamino)-ethylcarbamoyl]-ethyl}-4-methanesulfonylamino-benzamide] | < 100 nM | + (+, >10)
22 | CS(=O)(=O)c1ccc(C(=O)N[C@@H](CC2CCCCC2)C(=O)NCCNc2ccc(F)cc2)s1 [Compound 293, 5-Methanesulfonyl-thiophene-2-carboxylic acid (S)-{2-cyclohexyl-1-[2-(4-fluoro-phenylamino)-ethylcarbamoyl]-ethyl}-amide] | < 100 nM | ++ (++, >100)
23 | COc1ccc(NCCNC(=O)[C@H](CC2CCCCC2)NC(=O)c2sc(N)nc2C)cc1 [Compound 114, (S)-2-Amino-4-methyl-thiazole-5-carboxylic acid {2-cyclohexyl-1-[2-(4-methoxy-phenylamino)-ethylcarbamoyl]-ethyl}-amide] | < 100 nM | ++ (++, >100)
24 | COc1ccc(NCCNC(=O)[C@H](Cc2ccc(Cl)cc2Cl)NC(=O)c2cccc(C)c2)cc1 [Compound 229, (S)-N-{2-(2,4-Dichloro-phenyl)-1-[2-(4-methoxy-phenylamino)-ethylcarbamoyl]-ethyl}-3-methyl-benzamide] | < 100 nM | +++ (+++, >1000)
25 | COc1ccc(NCCNC(=O)[C@H](Cc2ccc(-c3ccncc3)cc2)NC(=O)c2cccc(C)c2)cc1 [Compound 277, (S)-N-[1-[2-(4-Methoxy-phenylamino)-ethylcarbamoyl]-2-(4-pyridin-4-yl-phenyl)-ethyl]-3-methyl-benzamide] | < 100 nM | ++ (++, >100)
26 | COc1ccc(NCCNC(=O)[C@H](CCC2CCCCC2)NC(=O)c2cc3cc(F)ccc3[nH]2)cc1 [Compound 132, (S)-5-Fluoro-1H-indole-2-carboxylic acid {3-cyclohexyl-1-[2-(4-methoxy-phenylamino)-ethylcarbamoyl]-propyl}-amide] | < 1000 nM | ++ (++, >100)
27 | Cc1ccccc1CC(=O)N[C@@H](CC1CCCCC1)C(=O)NCCNc1ccc(F)cc1 [Compound 304, 3-Cyclohexyl-N-[2-(4-fluoro-phenylamino)-ethyl]-2-(S)-(2-o-tolyl-acetylamino)-propionamide] | < 100 nM | +++ (+++, >1000)
